The text below walks through data of US20230277591A1 (JULIUS-MAXIMILIANS-UNIVERSITÄT WÜRZBURG, priority 2017, published 2023).

In data set [1] the test system is FLT3 CAR-T cells.
The test system of data set [2] is THP-1 AML cells. In words: Flow cytometric analysis of FLT3 expression after FLT3 inhibitor treatment, THP-1. The format is cell-based, human. As to conditions: THP-1, wild-type FLT3. Here is the method: (§1) Cell surface expression of FLT3 (CD135) was analyzed using a conjugated mouse-anti-human-FLT3 mAb (clone 4G8, BD Pharmagin, BD Biosciences, Germany) and mouse IgG1 isotype control (BD Pharmagin). In brief, 1×10^6 cells were washed, resuspended in 100 µL PBS/0.5% fetal calf serum and stained with 5 µL of anti-FLT3 mAb or isotype for 30 minutes at 4° C.

For data set [3], the system named is MV4;11 AML cells. In words: Flow cytometric analysis of surface expression after FLT3 inhibitor treatment, MV4;11. The format is cell-based, human. The method, then:
as §1

The test system of data set [4] is MOLM-13 AML cells. The data set can be described thus: Flow cytometric analysis of surface expression (FLT3, CD33, CD123) after FLT3 inhibitor treatment, MOLM-13. The format is cell-based, human. As to conditions: for time to decrease of FLT3 expression to baseline levels after withdrawal of drug: MOLM-13, midostaurin: baseline or slightly below baseline. The method, then: as §1
A complete medium change was performed every 7 days, MOLM-13 cells adjusted to 1×10^6/mL medium and 2 mL of this cell suspension plated per well in […] (Costar, Corning, NJ). After 2-3 weeks of culture with 10 nM midostaurine, MOLM-13 cells were exposed to exponentially increasing concentration of midostaurine for next 8-10 weeks to reach 50 nM midostaurin.

Data set [5] deals with JeKo-1 mantle cell lymphoma. The data set can be described thus: Flow cytometric analysis of FLT3 expression after FLT3 inhibitor treatment, JeKo-1. The format is cell-based, human. Conditions: JeKo-1, wild-type FLT3. The method, then:
as §1

Data set [6] deals with MOLM-13 AML cells. In words: MOLM-13 xenograft model of AML in NSG mice. The format is in vivo, mouse. Here is the method:
(§2) All experiments were approved by the Institutional Animal Care and Use Committees of the participating institutions. NOD.Cg-Prkdc^scid Il2rg^tm1Wjl/SzJ (NSG) mice (female, 6-8 week old) were purchased from Charles River or bred in-house. Mice were inoculated with 1×10^6 ffluc_GFP^+ MOLM-13 AML cells by tail vein injection on day 0, and received a single dose of 5×10^6 T cells (in 200 µL of PBS/0.5% FCS) by tail vein injection on day 7. Crenolanib [15 mg/kg; 200 µL of 30% glycerol formal (Sigma Aldrich, Munich, Germany)] was administered intraperitoneally (i.p.) Monday-Friday for 3 consecutive weeks. AML progression/regression was assessed by serial bioluminescence imaging following i.p. administration of D-luciferin substrate (0.3 mg/g body weight) (Biosynth, Staad, Switzerland) using an IVIS Lumina imaging system (Perkin Elmer, Waltham, Massachusetts). Data was analyzed using Living Image software (Perkin Elmer).
as §2, with “Crenolanib [15 mg/kg; 200 µL of 30% glycerol formal (Sigma Aldrich, Munich, Germany)] was administered intraperitoneally (i.p.) Monday-Friday for 3 consecutive weeks.” left out

Data set [7] relates to K562 erythro-myeloid leukemia. In words: Flow cytometric analysis of FLT3 expression after FLT3 inhibitor treatment, K562. The format is cell-based, human. As to conditions: K562, wild-type FLT3. The method, then:
as §1

Data set [8] deals with MV4;11 AML cells. In words: Antibody-dependent cellular cytotoxicity (ADCC) assay. As to conditions: mAb 5000 ng/mL, PBMC 50:1, 24 h. The format is cell-based, human. Here is the method:
MV4;11 cells were plated at a concentration of 1×10^6/mL in 1 mL per well in 24-well plates (Costar, Corning, NJ).
MV4;11 AML cells transduced with firefly luciferase (ffluc) were utilized for ADCC assays. MV4;11 AML cells were pre-treated with FLT3 inhibitors for 7 days or were left untreated. Target cells were co-incubated with healthy donor derived PBMCs at an effector-to-target ratio of 50:1 in triplicate wells of 96-well flat-bottom plates in the presence of solvent control, IgG1 isotype control (5000 ng/mL) or anti-FLT3 BV10 mAb (5000 ng/mL) (Biolegend, London, UK). ADCC was determined in a bioluminescence-based assay after 24 hours^40. Luciferin substrate was added to the co-culture and the decrease in luminescence signal was measured using a luminometer (Tecan, Männedorf, Switzerland). The percentage of viable cells was calculated using the following formula: % viability = bioluminescence signal in the presence of effector cells and BV10 mAb (with or without FLT3 inhibitor pre-treatment) × 100 / bioluminescence signal in the control condition.

The mark [9] stands for this setting: 4G8 CAR (Example 1), crenolanib 15 mg/kg i.p.

Entries after “also recorded” stand apart in the source; their conditions may differ.

Consider `CC1(COc2ccc3c(c2)ncn3-c2ccc3cccc(N4CCC(N)CC4)c3n2)COC1` [crenolanib], for which the “effect of the drug per se on (viability and) function of FLT3 CAR-T cells” value in data set [1] is “not affected; also recorded: did not affect”. Besides, the “increase in FLT3 expression upon exposure” value in data set [2] is “did not occur”. Besides, in data set [3] (MV4;11 (FLT3-ITD+/+)), the “FLT3 expression upon exposure” value is recorded as “increase”. Further, in data set [3] (inhibitor-treated), the “CD33 expression on MV4;11” value is reported as “not affected” and the “CD123 expression on MV4;11” value is “not affected”. Moreover, in data set [4] (10 nM midostaurin 2-3 weeks, 10 nM crenolanib 5 days, 1 nM quizartinib 5 days, p < 0.05), the “FLT3 surface protein (MFI) compared to MOLM-13native” value is on record as “significantly higher levels”. Also, in data set [4], the “time to decrease of FLT3 expression to baseline levels after withdrawal of drug” value is given as at most 2 days. Besides, the “FLT3 expression upon re-exposure to the drug” value in data set [4] (MOLM-13 after withdrawal) is “increased again”. Further, in data set [4] (inhibitor-treated vs native), the “CD33 expression on MOLM-13” value was “not affected” and the “CD123 expression on MOLM-13” value is on record as “not affected”. The “increase in FLT3 expression upon exposure” value in data set [5] is “did not occur”. This molecule yielded an overall response rate in data set [6] (4G8 CAR (Example 1), 5×10^6 T cells day 7, crenolanib 15 mg/kg i.p., n=8 per group) of 0%. Also, in data set [6] (setting [9]), the “AML cells in peripheral blood, bone marrow and spleen at experiment endpoint” value is listed as “high degree of leukemia infiltration”; the antileukemia efficacy entry is on record as “only a minute antileukemia effect”. Moreover, the “FLT3 on MOLM-13 cells recovered from peripheral blood and bone marrow at experiment endpoint” value in data set [6] (crenolanib monotherapy 15 mg/kg i.p.) was “uniformly and strongly upregulated”. The “increase in FLT3 expression upon exposure” value in data set [7] was “did not occur”.
For the molecule `CO[C@@H]1[C@H](N(C)C(=O)c2ccccc2)C[C@H]2O[C@]1(C)n1c3ccccc3c3c4c(c5c6ccccc6n2c5c31)C(=O)NC4` [midostaurin], the “effect of the drug per se on (viability and) function of FLT3 CAR-T cells” value in data set [1] is on record as “not affected; also recorded: did not affect”. In data set [4], the “time to decrease of FLT3 expression to baseline levels after withdrawal of drug” value is recorded as at most 2 days. Further, the “mice with leukemia reduction (response rate)” value in data set [6] (BV10 CAR (Example 3), midostaurin experiment, BL day 7 to day 11, n=4 per group) was 0%. Besides, the “MFI of FLT3 higher, mouse with lowest FLT3 expression vs mouse without drug” value in data set [6] (midostaurin 1 mg/kg i.p., bone marrow MOLM-13) is listed as 30%.

B1: BV10 mAb: anti-FLT3 monoclonal antibody BV10 (Biolegend) used in ADCC assay (antibody, V domains shown)
VH: QVQLKQSGPGLVQPSQSLSITCTVSGFSLTNYGLHWVRQSPGKGLEWLGVIWSGGSTDYNAAFISRLSISKDNSKSQVFFKMNSLQADDTAIYYCARKGGIYYANHYYAMDYWGQGTSVTVSS
VL: DIVMTQSPSSLSVSAGEKVTMSCKSSQSLLNSGNQKNYMAWYQQKPGQPPKLLIYGASTRESGVPDRFTGSGSGTDFTLTISSVQAEDLAVYYCQNDHSYPLTFGAGTKLELKR
As to B1, the “MV4;11 cells eliminated (ADCC)” value in data set [8] (crenolanib-treated MV4;11 (10 nM, 7 days)) is given as 39%; in data set [8] (midostaurin-treated MV4;11 (50 nM, 7 days)), 26%; in data set [8] (quizartinib-treated MV4;11 (1 nM, 7 days)) it was 46%; in data set [8] (without FLT3 inhibitor pre-treatment), 13%.
